Consider 13 compounds from patent publication US11339157B1, “4H-pyrrolo[3,2-c]pyridin-4-one derivatives” (Bayer Aktiengesellschaft, priority 2017, dated 2022).

Like-named read-outs stand apart in the source and are kept apart here.

The subject of assay [1] is Ba/F3-EGFR-WT cells. In words: Proliferation assay in BA/F3 (wild type) cells (Cell Titer-Glo). It is filed as cell-based. An outline of the steps:
(§1)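 Ba/F3 cells stably expressing retrovirally transduced EGFR-WT or EGFR-insSVD; WT cells plated with 10 ng/mL EGF, insSVD cells without EGF. Compound exposure 48 h at 37° C; viability read by CellTiter-Glo luminescence.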
A general note: ATP-based viability assays read luminescence as a measure of living cells.

In assay [2] the target is Bub1 (Homo sapiens (Human), UniProt O43683). In words: Bub1 kinase assay (TR-FRET, 10 μM ATP). It is filed as biochemical. The following applies: mean, read-out: Bub1 kinase assay IC50 [mol/l] (mean). The text has this:
Bub1-inhibitory activities of compounds described in the present invention were quantified using a time-resolved fluorescence energy transfer (TR-FRET) kinase assay which measures phosphorylation of the synthetic peptide Biotin-Ahx-[…]—SEQ ID NO: 5 (C-terminus in amide form), purchased from e.g. Biosyntan (Berlin, Germany) by the (recombinant) catalytic domain of human Bub1 (amino acids 704-1085), expressed in Hi5 insect cells with an N-terminal His6-tag (SEQ ID NO: 9) and purified by affinity-(Ni-NTA) and size exclusion chromatography.
In a typical assay 11 different concentrations of each compound (0.1 nM, 0.33 nM, 1.1 nM, 3.8 nM, 13 nM, 44 nM, 0.15 μM, 0.51 μM, 1.7 μM, 5.9 μM and 20 μM) were tested in duplicate within the same microtiter plate. To this end, 100-fold concentrated compound solutions (in DMSO) were previously prepared by serial dilution (1:3.4) of 2 mM stocks in a clear low volume 384-well source microtiter plate (Greiner Bio-One, Frickenhausen, Germany), from which 50 nl of compounds were transferred into a black low volume test microtiter plate from the same supplier. […] The resulting mixture (5 μl final volume) was incubated at 22° C. during 60 min., and the reaction was stopped by the addition of 5 μl of an aqueous EDTA-solution (50 mM EDTA, in 100 mM HEPES pH 7.5 and 0.2% (w/v) bovine serum albumin) which also contained the TR-FRET detection reagents (0.2 μM streptavidin-XL665 [Cisbio Bioassays, Codolet, France] and 1 nM anti-phosho-Serine antibody [Merck Millipore, cat. #35-002] and 0.4 nM LANCE EU-W1024 labeled anti-mouse IgG antibody [Perkin-Elmer, product no. AD0077, alternatively a Terbium-cryptate-labeled anti-mouse IgG antibody from Cisbio Bioassays can be used]). The stopped reaction mixture was further incubated 1 h at 22° C. in order to allow the formation of complexes between peptides and detection reagents. Subsequently, the amount of product was evaluated by measurement of the resonance energy transfer from the Eu-chelate-antibody complex recognizing the Phosphoserine residue to the streptavidin-XL665 bound to the biotin moiety of the peptide. To this end, the fluorescence emissions at 620 nm and 665 nm after excitation at 330-350 nm were measured in a TR-FRET plate reader, e.g. a Rubystar or Pherastar (both from BMG Labtechnologies, Offenburg, Germany) or a Viewlux (Perkin-Elmer) and the ratio of the emissions (665 nm/[…]) was taken as indicator for the amount of phosphorylated substrate. The data were normalised using two sets of control wells for high-(=enzyme reaction without inhibitor=0%=Minimum inhibition) and low-(=all assay components without enzyme=100%=Maximum inhibition) Bub1 activity. IC50 values were calculated by fitting the normalized inhibition data to a 4-parameter logistic equation (Minimum, Maximum, IC50, Hill; Y=Max+(Min−Max)/(1+(X/IC50)Hill)).
Background: In TR-FRET formats the signal depends on donor and acceptor labels being close together.

Assay [3] has as its target EGFR ins ASV (insertion of ASV between V769 and D770). In words: Exon 20-Mutant-EGFR(V769_D770insASV) kinase assay (TR-FRET). It is filed as biochemical, human. The note with it: 2 mM ATP.
Method: Exon 20-Mutant-EGFR(V769_D770insASV) Kinase Assay
Inhibitory activity of compounds of the present invention against an Epidermal Growth Factor Receptor (EGFR) with an insertion of the amino acids sequence ASV between V769 and D770 was quantified employing the TR-FRET based kinase activity assay as described in the following paragraphs.
For the assay 50 nl of a 100-fold concentrated solution of the test compound in DMSO was pipetted into either a black low volume 384well microtiter plate or a black 1536 well microtiter plate (both Greiner Bio-One, Frickenhausen, Germany), 2 μl of a solution of EGFR in aqueous assay buffer [50 mM Hepes pH 7.0, 10 mM MgCl2, 1 mM dithiothreitol, 0.5 mM EGTA, 0.3 mM activated sodium ortho-vanadate, 0.005% (w/v) bovine serum albumin, 0.005% (v/v) Tween-20] were added and the mixture was incubated for 15 min at 22° C. to allow pre binding of the test compounds to the enzyme before the start of the kinase reaction. […] The concentration of EGFR was adjusted depending of the activity of the enzyme lot and was chosen appropriate to have the assay in the linear range, typical concentration was 2.5 pg/μl. The reaction was stopped by the addition of 3 μl of a solution of HTRF detection reagents (83.3 nM streptavidine-XL665 [Cisbio Bioassays, Codolet, France] and 1.67 nM PT66-Tb-Cryptate, an terbium-cryptate labelled anti-phospho-tyrosine antibody from Cisbio Bioassays [instead of the PT66 Tb cryptate PT66 Eu Chelate from Perkin Elmer can also be used]) in an aqueous EDTA-solution (133.3 mM EDTA, 0.2% (w/v) bovine serum albumin in 50 mM HEPES pH 7.5).
The resulting mixture was incubated 1 h at 22° C. to allow the binding of the biotinylated phosphorylated peptide to the streptavidine-XL665 and the PT66-Tb-Cryptate. Subsequently the amount of phosphorylated substrate was evaluated by measurement of the resonance energy transfer from the PT66-Tb-Cryptate to the streptavidine-XL665.
Assay [4] relates to Ba/F3-EGFR-insSVD cells. The assay is described as follows: Proliferation assay in BA/F3 (ins SVD) cells (Cell Titer-Glo). Format: cell-based. Put shortly:
as §1

The target of assay [5] is EGFR ins SVD (insertion of SVD between D770 and N771) (Homo sapiens, UniProt P00533, INS767SVD). In words: Exon 20-Mutant-EGFR(D770_N771insSVD) kinase assay (TR-FRET). Format: biochemical.
The mark [6] stands for this setting: Mus musculus, BaF3, 48 h, Table 10, plated with 10 ng/mL EGF.
[7] abbreviates: Mus musculus, BaF3, 48 h, Table 10, plated without EGF.
Where [8] appears, read: 2 mM ATP, mean, read-out: EGFR ins SVD IC50 [mol/l] (mean).
Where [9] appears, read: Table 9, read-out: mutEGFR (D770_N771insSVD) kinase assay IC50.

EGFR ins SVD (insertion of SVD between D770 and N771), sequence (P00533 with tags, fused parts or gaps INS767SVD limits assumed): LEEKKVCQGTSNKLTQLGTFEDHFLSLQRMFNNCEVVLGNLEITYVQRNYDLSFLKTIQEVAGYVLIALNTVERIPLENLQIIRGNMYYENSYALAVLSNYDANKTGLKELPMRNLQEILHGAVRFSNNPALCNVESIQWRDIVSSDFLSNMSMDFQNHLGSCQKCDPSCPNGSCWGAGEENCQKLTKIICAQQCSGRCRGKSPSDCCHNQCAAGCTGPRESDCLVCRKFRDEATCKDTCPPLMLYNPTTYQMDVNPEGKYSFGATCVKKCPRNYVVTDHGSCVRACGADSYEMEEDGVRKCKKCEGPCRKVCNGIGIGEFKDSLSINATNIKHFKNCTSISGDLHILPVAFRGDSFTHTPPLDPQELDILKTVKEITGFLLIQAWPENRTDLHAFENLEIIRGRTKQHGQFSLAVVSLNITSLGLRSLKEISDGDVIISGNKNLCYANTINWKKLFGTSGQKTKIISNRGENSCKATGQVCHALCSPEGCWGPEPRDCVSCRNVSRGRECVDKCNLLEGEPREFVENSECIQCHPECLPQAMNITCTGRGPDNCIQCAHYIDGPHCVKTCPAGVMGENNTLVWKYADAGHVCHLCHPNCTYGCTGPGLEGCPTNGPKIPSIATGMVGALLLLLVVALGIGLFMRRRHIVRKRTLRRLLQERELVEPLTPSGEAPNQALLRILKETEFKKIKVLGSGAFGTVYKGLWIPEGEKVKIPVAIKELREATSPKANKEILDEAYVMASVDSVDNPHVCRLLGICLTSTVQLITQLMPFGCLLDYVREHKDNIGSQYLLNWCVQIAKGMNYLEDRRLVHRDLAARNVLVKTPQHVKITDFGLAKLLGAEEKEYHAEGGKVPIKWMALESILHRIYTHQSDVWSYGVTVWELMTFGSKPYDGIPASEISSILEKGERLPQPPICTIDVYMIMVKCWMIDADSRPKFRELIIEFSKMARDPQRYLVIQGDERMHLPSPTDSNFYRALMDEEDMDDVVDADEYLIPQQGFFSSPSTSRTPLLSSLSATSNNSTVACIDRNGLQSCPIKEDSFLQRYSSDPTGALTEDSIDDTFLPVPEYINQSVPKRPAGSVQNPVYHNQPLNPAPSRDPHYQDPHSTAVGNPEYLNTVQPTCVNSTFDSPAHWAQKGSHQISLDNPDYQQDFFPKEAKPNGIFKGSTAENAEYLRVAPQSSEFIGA
Bub1, sequence (O43683 704-1085): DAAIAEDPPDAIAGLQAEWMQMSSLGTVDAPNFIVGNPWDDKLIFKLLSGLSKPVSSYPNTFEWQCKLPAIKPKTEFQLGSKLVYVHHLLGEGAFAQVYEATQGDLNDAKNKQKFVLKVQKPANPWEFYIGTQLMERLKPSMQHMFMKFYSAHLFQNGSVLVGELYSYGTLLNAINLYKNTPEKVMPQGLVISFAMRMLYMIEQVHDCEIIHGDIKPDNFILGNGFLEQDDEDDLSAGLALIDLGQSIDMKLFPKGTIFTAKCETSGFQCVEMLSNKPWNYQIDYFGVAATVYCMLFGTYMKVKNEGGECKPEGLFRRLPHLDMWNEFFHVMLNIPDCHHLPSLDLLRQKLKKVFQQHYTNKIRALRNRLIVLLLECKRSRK

As for `CC(C)(O)COc1cnccc1-c1[nH]c2c(c1Nc1cccc(F)c1)C(=O)NCC2` [Example 4, 3-[(3-fluorophenyl)amino]-2-[3-(2-hydroxy-2-methylpropoxy)pyridin-4-yl]-1,5,6,7-tetrahydro-4H-pyrrolo[3,2-c]pyridin-4-one], the IC50 was 1610 nM in assay [1] (setting [6]); 12.5 nM in assay [2]; 329 nM in assay [4] (setting [7]); less than 0.072 nM in assay [5] (setting [8]); less than 0.0725 nM in assay [5] (setting [9]). Besides, the “EGFR ins ASV IC50 [mol] (mean)” value in assay [3] turned out to be 1.31e-10 mol.

Turning to `O=C1NCCc2[nH]c(-c3ccncc3OCc3ccccc3)c(Nc3cccc(F)c3)c21` [Example 3, 2-[3-(benzyloxy)pyridin-4-yl]-3-[(3-fluorophenyl)amino]-1,5,6,7-tetrahydro-4H-pyrrolo[3,2-c]pyridin-4-one], the IC50 in assay [1] (Mus musculus, BaF3, Table 10, plated with 10 ng/mL EGF, 48 h) was 2160 nM; in assay [2] it was 47.6 nM; in assay [4] (Mus musculus, BaF3, Table 10, plated without EGF, 48 h) it was 587 nM; in assay [5] (setting [8]), 0.28 nM; in assay [5] (setting [9]) it was 0.28 nM. Besides, the “EGFR ins ASV IC50 [mol] (mean)” value in assay [3] came to 6.85e-09 mol.

With `COCCOc1cnccc1-c1[nH]c2c(c1Nc1cccc(F)c1C)C(=O)NCC2` [Example 20, 3-[(3-fluoro-2-methylphenyl)amino]-2-[3-(2-methoxyethoxy)pyridin-4-yl]-1,5,6,7-tetrahydro-4H-pyrrolo[3,2-c]pyridin-4-one], the IC50 in assay [1] (setting [6]) came to 625 nM; in assay [2] it was 67.4 nM; in assay [4] (setting [7]), 48.3 nM; in assay [5] (setting [8]), 0.149 nM; in assay [5] (setting [9]), 0.149 nM. In assay [3], the “EGFR ins ASV IC50 [mol] (mean)” value was 3.22e-10 mol.

With `COCCOc1cnccc1-c1[nH]c2c(c1Nc1ccc(F)c(F)c1OC)C(=O)NCC2` [Example 28, 3-[(3,4-difluoro-2-methoxyphenyl)amino]-2-[3-(2-methoxyethoxy)pyridin-4-yl]-1,5,6,7-tetrahydro-4H-pyrrolo[3,2-c]pyridin-4-one], the IC50 in assay [1] (setting [6]) worked out at 3670 nM; in assay [2], 565 nM; in assay [4] (setting [7]), 644 nM; in assay [5] (setting [8]), 0.738 nM; in assay [5] (setting [9]), 0.54 nM. In assay [3], the “EGFR ins ASV IC50 [mol] (mean)” value is 2.69e-08 mol.

Turning to `CCOc1c(F)cccc1Nc1c(-c2ccncc2OCC(C)(C)OC)[nH]c2c1C(=O)NCC2` [Example 26, 3-[(2-ethoxy-3-fluorophenyl)amino]-2-[3-(2-methoxy-2-methylpropoxy)pyridin-4-yl]-1,5,6,7-tetrahydro-4H-pyrrolo[3,2-c]pyridin-4-one], the IC50 came to 2000 nM in assay [1] (setting [6]); 85.8 nM in assay [2]; 618 nM in assay [4] (setting [7]); 0.268 nM in assay [5] (setting [8]); 0.415 nM in assay [5] (setting [9]). In addition, the “EGFR ins ASV IC50 [mol] (mean)” value in assay [3] was 9.43e-10 mol.

Consider `COC(C)(C)COc1cnccc1-c1[nH]c2c(c1Nc1cccc(F)c1CC(F)F)C(=O)NCC2` [Example 23, 3-{[2-(2,2-difluoroethyl)-3-fluorophenyl]amino}-2-[3-(2-methoxy-2-methylpropoxy)pyridin-4-yl]-1,5,6,7-tetrahydro-4H-pyrrolo[3,2-c]pyridin-4-one], for which the IC50 was 388 nM in assay [1] (setting [6]); 67.3 nM in assay [2]; 33 nM in assay [4] (setting [7]); 0.259 nM in assay [5] (setting [8]); 0.191 nM in assay [5] (setting [9]). Further, the “EGFR ins ASV IC50 [mol] (mean)” value in assay [3] worked out at 3.42e-10 mol.

As for `COCCOc1cnccc1-c1[nH]c2c(c1Nc1ccccc1CC(F)F)C(=O)NCC2` [Example 15, 3-{[2-(2,2-difluoroethyl)phenyl]amino}-2-[3-(2-methoxyethoxy)pyridin-4-yl]-1,5,6,7-tetrahydro-4H-pyrrolo[3,2-c]pyridin-4-one], the IC50 in assay [1] (setting [6]) was found to be 2870 nM; in assay [2], 187 nM; in assay [4] (setting [7]) it was 409 nM; in assay [5] (setting [8]), 0.489 nM; in assay [5] (setting [9]), 0.489 nM. Moreover, the “EGFR ins ASV IC50 [mol] (mean)” value in assay [3] came out at 1.34e-09 mol.

As to `COc1c(F)cccc1Nc1c(-c2ccncc2OCC(C)(C)OC)[nH]c2c1C(=O)NCC2` [Example 17, 3-[(3-fluoro-2-methoxyphenyl)amino]-2-[3-(2-methoxy-2-methylpropoxy)pyridin-4-yl]-1,5,6,7-tetrahydro-4H-pyrrolo[3,2-c]pyridin-4-one], the IC50 in assay [1] (setting [6]) was 397 nM; in assay [2], 55.1 nM; in assay [4] (setting [7]), 11.9 nM; in assay [5] (setting [8]), 0.113 nM; in assay [5] (setting [9]) it was 0.113 nM. The “EGFR ins ASV IC50 [mol] (mean)” value in assay [3] turned out to be 1.77e-10 mol.

Turning to `COC(C)(C)COc1cnccc1-c1[nH]c2c(c1Nc1cccc(F)c1OC(F)F)C(=O)NCC2` [Example 19, 3-{[2-(difluoromethoxy)-3-fluorophenyl]amino}-2-[3-(2-methoxy-2-methylpropoxy)pyridin-4-yl]-1,5,6,7-tetrahydro-4H-pyrrolo[3,2-c]pyridin-4-one], the IC50 in assay [1] (Table 10, plated with 10 ng/mL EGF, 48 h) worked out at 870 nM; in assay [2], 149 nM; in assay [4] (Table 10, plated without EGF, 48 h) it was 40.1 nM; in assay [5] (setting [8]), 0.155 nM; in assay [5] (setting [9]) it was 0.148 nM. The “EGFR ins ASV IC50 [mol] (mean)” value in assay [3] worked out at 2.39e-10 mol.

For `COC(C)(C)COc1cnccc1-c1[nH]c2c(c1Nc1cccc(F)c1OCC(F)F)C(=O)NCC2` [Example 27, 3-{[2-(2,2-difluoroethoxy)-3-fluorophenyl]amino}-2-[3-(2-methoxy-2-methylpropoxy)pyridin-4-yl]-1,5,6,7-tetrahydro-4H-pyrrolo[3,2-c]pyridin-4-one], the IC50 came to 2500 nM in assay [1] (setting [6]); 70.1 nM in assay [2]; 498 nM in assay [4] (setting [7]); 2.14 nM in assay [5] (setting [8]); 2.14 nM in assay [5] (setting [9]). Further, in assay [3], the “EGFR ins ASV IC50 [mol] (mean)” value was 7.09e-09 mol.

`COCCOc1cnccc1-c1[nH]c2c(c1Nc1ccccc1OC)C(=O)NCC2` [Example 13, 2-[3-(2-methoxyethoxy)pyridin-4-yl]-3-[(2-methoxyphenyl)amino]-1,5,6,7-tetrahydro-4H-pyrrolo[3,2-c]pyridin-4-one]: the IC50 in assay [1] (setting [6]) is 4010 nM; in assay [2] it was 350 nM; in assay [4] (setting [7]), 811 nM; in assay [5] (setting [8]) it was 4.41 nM; in assay [5] (setting [9]), 4.41 nM. The “EGFR ins ASV IC50 [mol] (mean)” value in assay [3] came to 3.89e-08 mol.

As for `CN(C)CCOc1cnccc1-c1[nH]c2c(c1Nc1cccc(F)c1)C(=O)NCC2` [Example 5, 2-{3-[2-(dimethylamino)ethoxy]pyridin-4-yl}-3-[(3-fluorophenyl)amino]-1,5,6,7-tetrahydro-4H-pyrrolo[3,2-c]pyridin-4-one], the IC50 was 32.4 nM in assay [2], 567 nM in assay [4] (setting [7]), 1.56 nM in assay [5] (setting [8]) and 1.56 nM in assay [5] (setting [9]). The “EGFR ins ASV IC50 [mol] (mean)” value in assay [3] was determined as 4.31e-09 mol.

As for `COC(C)(C)COc1cnccc1-c1[nH]c2c(c1Nc1cccc(F)c1O)C(=O)NCC2` [Example 24, 3-[(3-fluoro-2-hydroxyphenyl)amino]-2-[3-(2-methoxy-2-methylpropoxy)pyridin-4-yl]-1,5,6,7-tetrahydro-4H-pyrrolo[3,2-c]pyridin-4-one], in assay [3], the “EGFR ins ASV IC50 [mol] (mean)” value came out at 6.34e-10 mol. For the same compound, the IC50 in assay [5] (setting [8]) and in assay [5] (setting [9]) was 0.541 nM in each case.
